Earlier results in patent US20220218780A1, “Composition for Improving Vascular Endothelial Function or Improving Blood Flow in Peripheral Blood Vessels” (House Wellness Foods Corporation, priority 2018, published 2022).

Tested on: vascular endothelial function
Details: diabetes rat models, continuous oral administration every day, 30 mg/kg and 300 mg/kg body weight

In the case of COc1cc(/C=C/C(=O)CC(=O)/C=C/c2ccc(O)c(OC)c2)ccc1O [curcumin], the “reduction in vascular endothelial function associated with diabetes” value is listed as “improved”.
